Patent US20140273210A1, “HIGH […] […] FOR CELL CULTURES AND APPLICATIONS THEREOF” (Board Of Regents, The University Of Texas System, priority 2013, published 2014)

Tested on: vascular smooth muscle cells
Test: LDH release cytotoxicity assay with or without cyclic mechanical strain
Conditions: 10 nM mithramycin, 24 hours
Protocol: A colorimetric cytotoxicity assay was used assess the presence of cell death during mechanical loading/drug treatment (Promega). This assay measures release of lactate dehydrogenase (LDH) activity and was used according to the manufactures directions. Mechanical stretch to cells in culture using the various waveforms were applied to cell culture. To confirm the biocompatibility of the cells in the system, cell death was measured through an LDH release assay. The maximal strain of 5% was set to be identical between the groups. After 4 hours of mechanical loading the cytotoxicity of the mechanical load was used using a LDH release assay.
Toxicity testing in the presence of mechanical load. Toxicity of chemotherapeutic drug mithramycin is tested in the presence or absence of mechanical strain. Specifically, cyclic mechanical load of 5% maximal strain was applied to vascular smooth muscle cells in the presence or absence of 10 nM mithramycin for 24 hours. Experiments of vascular smooth muscle cells in the presence or absence of 10 nM mithramycin without mechanical strains were also performed for comparison during the same time period. Release of lactate dehydrogenase (LDH) was measured as indication of cell death and the results were plotted in FIG. 11.

## mithramycin
Absence of mechanical strain
  Release of lactate dehydrogenase (LDH) compared to control cells: about the same
Cyclic mechanical load of 5% maximal strain
  Increase in LDH release from the cells compared to the control: four folds increase
